Experimental findings from ChEMBL document CHEMBL1201862, “PubChem BioAssay data set” (2004) are described below.

Experiment [1] in a line: loss of HEK293T viability via ATP – cell-based, plate reader, dry powder, set 10, cytotoxicity control, dose response (AID 743315). It is filed as functional. To be noted: HEK293.
Experiment [2] deals with T1, Short transient receptor potential channel 4 (Mus musculus, UniProt Q9QUQ5).
T1 sequence (Q9QUQ5 whole entry): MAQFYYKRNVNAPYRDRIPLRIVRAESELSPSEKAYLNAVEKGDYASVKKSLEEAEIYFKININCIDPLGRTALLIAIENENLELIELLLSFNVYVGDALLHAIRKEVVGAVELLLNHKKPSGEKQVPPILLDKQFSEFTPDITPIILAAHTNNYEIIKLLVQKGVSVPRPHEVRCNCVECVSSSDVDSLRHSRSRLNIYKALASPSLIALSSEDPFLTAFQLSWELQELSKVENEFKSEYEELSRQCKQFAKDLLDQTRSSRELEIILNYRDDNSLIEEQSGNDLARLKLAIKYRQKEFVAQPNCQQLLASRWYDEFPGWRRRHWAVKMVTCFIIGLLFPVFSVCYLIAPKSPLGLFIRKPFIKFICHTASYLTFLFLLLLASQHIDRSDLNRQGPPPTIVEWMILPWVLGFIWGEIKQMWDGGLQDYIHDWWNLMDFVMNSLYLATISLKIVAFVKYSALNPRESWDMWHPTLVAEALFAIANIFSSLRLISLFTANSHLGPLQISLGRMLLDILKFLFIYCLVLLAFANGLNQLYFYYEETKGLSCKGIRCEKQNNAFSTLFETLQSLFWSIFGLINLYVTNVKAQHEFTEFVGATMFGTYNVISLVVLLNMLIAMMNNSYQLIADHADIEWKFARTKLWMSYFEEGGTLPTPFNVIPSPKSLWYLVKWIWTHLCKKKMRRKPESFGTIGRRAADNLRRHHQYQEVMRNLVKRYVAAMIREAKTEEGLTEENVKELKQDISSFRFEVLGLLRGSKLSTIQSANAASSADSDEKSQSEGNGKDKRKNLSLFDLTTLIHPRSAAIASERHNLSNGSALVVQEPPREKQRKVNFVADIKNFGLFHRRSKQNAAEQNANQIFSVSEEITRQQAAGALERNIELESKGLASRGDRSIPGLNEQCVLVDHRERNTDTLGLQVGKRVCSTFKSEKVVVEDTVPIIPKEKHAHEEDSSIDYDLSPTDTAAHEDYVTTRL
Kind of experiment: block of DAMGO-driven TRPC4 calcium entry – cell-based, HEK293 TRPC4/mu-opioid, Fluo-4 calcium, dose response (AID 434942).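 Further: potency of inhibitors blocking the TRPC4 calcium response.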 The experiment is classed as functional.

Experiment [3] can be described thus: antifungal activity, alamar blue, dry powder, counter-screen for C. neoformans cell wall antifungals, dose response (AID 743128). It is filed as functional, organism-based. Background: The colour change of resazurin is a common sign of viable cells or microbes.
Experiment [4] is described as follows: viability loss in Vero cells – cytotoxicity control for Vif-APOBEC3G degradation inhibitor project, dose response (AID 1117358). To be noted: Vero. The experiment is classed as functional.
The target of experiment [5] is T2, Calpain-2 catalytic subunit (Sus scrofa, UniProt P43367).
T2 sequence (P43367 whole entry): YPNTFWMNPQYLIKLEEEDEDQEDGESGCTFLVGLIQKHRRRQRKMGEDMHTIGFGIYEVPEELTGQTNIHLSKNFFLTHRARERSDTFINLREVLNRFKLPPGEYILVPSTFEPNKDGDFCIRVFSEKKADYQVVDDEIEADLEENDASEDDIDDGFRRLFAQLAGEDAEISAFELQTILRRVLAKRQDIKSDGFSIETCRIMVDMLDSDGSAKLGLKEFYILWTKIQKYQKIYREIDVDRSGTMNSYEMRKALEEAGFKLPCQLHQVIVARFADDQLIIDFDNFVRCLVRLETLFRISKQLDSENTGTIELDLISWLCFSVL
Kind of experiment: m-calpain protease blockers, concentration series – biochemical, fluorogenic peptide substrate, dose response (AID 1420). The experiment is classed as functional.

The target in a further experiment is Paired box protein Pax-8 (Homo sapiens, UniProt Q06710). Nature of the experiment: PAX8 transcriptional activity inhibition in RMG-I – RMG-I cells, luciferase, cherry-pick, dose response (AID 687027).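 Further: luciferase reporter driven by Pax8 target thyroperoxidase promoter measured by SteadyGlo luminescence.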 It is filed as functional, cell-based.
The nature of experiment [6]: A2780 cell killing – plate reader, dry powder samples, cytotoxicity control, dose response (AID 743046). The experiment is classed as functional, cell-based.
Experiment [7] is described as follows: COV362 cell viability loss – plate reader, dry powder, SA12, cytotoxicity control for PAX8 inhibitor project, dose response (AID 743144). It is filed as functional, cell-based.
The nature of experiment [8]: PAX8-dependent cell viability loss – plate reader, dry powder, dose response (AID 743049). The experiment is classed as functional, cell-based.
A short description of experiment [9]: OVCAR-3 cell viability loss – plate reader, dry powder samples, PAX8 inhibitor project, dose response (AID 743044). It is filed as functional, cell-based.
The subject of the next experiment is INS1. Nature of the experiment: INS-1E survival protection against cytokine death – cell-based, luminescence, retest, dose response (AID 449756).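 Further: cell death triggered by IL-1 beta plus TNF-alpha plus IFN-gamma mixture; protective hits raise ATP signal compared with cytokine alone wells.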 It is filed as functional. Particulars: Rattus norvegicus.
Experiment [10] is described as follows: general cell-killing toxicity readout – plate reader, dry powder samples, cytotoxicity control for PAX8 inhibitor project, dose response (AID 743021). It is filed as functional, cell-based.
Experiment [11] in a line: OV-90 cell viability loss – plate reader, dry powder, SA8, PAX8 inhibitor project, dose response (AID 743149). The experiment is classed as functional, cell-based.
A short description of experiment [12]: OVCAR4 cell viability loss – plate reader, dry powder, SA11, cytotoxicity control for PAX8 inhibitor project, dose response (AID 743150). It is filed as functional, cell-based. Particulars: OVCAR-4.
Experiment [13] is described as follows: inhibitors acting on PAX2 in cells – cell-based, plate reader, dry powder samples, selectivity assay for PAX8 inhibitor project, dose response (AID 743048).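 Further: HEK293 cells carrying a WT1 promoter luciferase reporter driven by expressed Pax2; potency is for inhibition of Pax2 driven reporter signal.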 The experiment is classed as functional.
Experiment [14] is described as follows: PAX5 cellular inhibition readout – cell-based, plate reader, dry powder samples, selectivity assay for PAX8 inhibitor project, dose response (AID 743047).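 Further: HEK293 cells carrying a Pax5 driven CD19 promoter luciferase reporter; potency of inhibitors that lower reporter luminescence.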 It is filed as functional.
Experiment [15] can be described thus: COV434 cell viability loss – plate reader, dry powder, SA7, cytotoxicity control for PAX8 inhibitor project, dose response (AID 743145). It is filed as functional, cell-based.
The nature of experiment [16]: toxicity toward immortalized ovarian surface epithelium – cell-based, plate reader, dry powder samples, cytotoxicity control for PAX8 inhibitor project, dose response (AID 743045). The experiment is classed as functional.
For experiment [17], the target named is T3, Genome polyprotein (Hepatitis C virus, UniProt Q2Q167). Kind of experiment: disruption of hepatitis C core self-association – biochemical, TR-FRET, dose response (AID 2159).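 Further: blocks dimerization of HCV core protein measured by TR-FRET between tagged core106 pairs.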 On the set-up: species or system Hepacivirus hominis.
The next experiment addresses T4, Bcl-2-related protein A1 (Mus musculus, UniProt Q07440).
T4 sequence (Q07440 whole entry): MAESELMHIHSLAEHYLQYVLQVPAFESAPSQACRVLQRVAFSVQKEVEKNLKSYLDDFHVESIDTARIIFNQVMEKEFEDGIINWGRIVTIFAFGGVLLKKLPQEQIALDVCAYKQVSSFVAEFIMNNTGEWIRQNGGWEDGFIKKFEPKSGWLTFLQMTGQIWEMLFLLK
It is filed as functional.

Experiment [18] deals with T5, Ubiquitin-conjugating enzyme E2 N (Homo sapiens, UniProt P61088).
T5 sequence (P61088 whole entry): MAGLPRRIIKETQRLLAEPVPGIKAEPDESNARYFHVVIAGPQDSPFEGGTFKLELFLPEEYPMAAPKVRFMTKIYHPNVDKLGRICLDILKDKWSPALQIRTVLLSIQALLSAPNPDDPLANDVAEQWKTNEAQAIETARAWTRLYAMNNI
It is filed as functional.

The target of experiment [19] is T5, Ubiquitin-conjugating enzyme E2 N. It is filed as functional. The source holds these as a separate data set.
Experiment [20] addresses T3, Genome polyprotein. Nature of the experiment: Late stage assay provider counterscreen results for the probe development effort to identify inhibitors of Hepatitis C Virus (HCV) core protein dimerization: Luminescence-based biochemical AlphaScreen assay to identify inhibitors of HCV core dimerization. It is filed as functional, Hepacivirus hominis. For orientation: Counterscreens check selectivity or assay interference.

For another experiment, the target named is Transthyretin (Homo sapiens, UniProt P02766). Kind of experiment: Luminescence-based cell-based high throughput dose response assay to identify activators of Transthyretin (TTR) transcription. It is filed as functional.
A further experiment has as its system Streptococcus. Kind of experiment: GAS UMAA2166 growth inhibition – luminescence, BacTiterGlo, counter-screen for streptokinase expression inhibitor project, dose response (AID 1915).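 Further: potency for reduction of bacterial viability or growth.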 It is filed as functional, organism-based.
The nature of experiment [21]: M. tuberculosis growth inhibition, HTS (AID 449762). The experiment is classed as functional.
A short description of experiment [22]: viability of uninfected HEp-2 cells – cell-based, HTS, cytotoxicity control for RSV inhibitor project, dose response (AID 2410). The experiment is classed as functional. To be noted: human respiratory syncytial virus.
Experiment [23] concerns Streptococcus sp. 'group A'. Kind of experiment: Streptococcus pyogenes SK(-)GAS viability under kanamycin – luminescence, BacTiterGlo, confirmation, counter-screen for streptokinase expression inhibitor project, dose response (AID 1900). The experiment is classed as functional, organism-based.
The target in a further experiment is T6, Streptokinase A (Streptococcus pyogenes serotype M1, UniProt P10520).
T6 sequence (P10520 whole entry): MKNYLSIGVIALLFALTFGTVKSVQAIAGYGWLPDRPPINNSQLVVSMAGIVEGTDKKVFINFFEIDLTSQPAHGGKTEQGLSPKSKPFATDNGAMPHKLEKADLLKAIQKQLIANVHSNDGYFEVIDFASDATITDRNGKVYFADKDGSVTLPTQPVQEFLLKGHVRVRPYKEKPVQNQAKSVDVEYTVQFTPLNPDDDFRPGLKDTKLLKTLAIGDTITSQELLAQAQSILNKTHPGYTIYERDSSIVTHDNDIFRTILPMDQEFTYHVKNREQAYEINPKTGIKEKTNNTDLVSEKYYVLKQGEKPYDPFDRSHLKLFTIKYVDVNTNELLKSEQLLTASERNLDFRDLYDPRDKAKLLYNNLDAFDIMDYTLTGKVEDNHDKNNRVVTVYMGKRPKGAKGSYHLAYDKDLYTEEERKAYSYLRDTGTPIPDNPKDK
Kind of experiment: viability-normalized secreted streptokinase activity reduction – plasminogen activation absorbance, OD405, dose response (AID 1914).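 Further: secreted streptokinase activity via plasminogen activation per viability signal from cell pellet.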 The experiment is classed as functional, Streptococcus pyogenes M1 GAS.

Molecules are shown by their SMILES. Activity calls are given as the source filed them. Some results are limits rather than exact numbers.

T3 sequence (Q2Q167 whole entry): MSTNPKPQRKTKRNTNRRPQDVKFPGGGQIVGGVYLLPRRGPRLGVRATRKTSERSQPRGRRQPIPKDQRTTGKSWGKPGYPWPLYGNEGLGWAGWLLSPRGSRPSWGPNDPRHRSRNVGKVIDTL
Paired box protein Pax-8, sequence (Q06710 whole entry): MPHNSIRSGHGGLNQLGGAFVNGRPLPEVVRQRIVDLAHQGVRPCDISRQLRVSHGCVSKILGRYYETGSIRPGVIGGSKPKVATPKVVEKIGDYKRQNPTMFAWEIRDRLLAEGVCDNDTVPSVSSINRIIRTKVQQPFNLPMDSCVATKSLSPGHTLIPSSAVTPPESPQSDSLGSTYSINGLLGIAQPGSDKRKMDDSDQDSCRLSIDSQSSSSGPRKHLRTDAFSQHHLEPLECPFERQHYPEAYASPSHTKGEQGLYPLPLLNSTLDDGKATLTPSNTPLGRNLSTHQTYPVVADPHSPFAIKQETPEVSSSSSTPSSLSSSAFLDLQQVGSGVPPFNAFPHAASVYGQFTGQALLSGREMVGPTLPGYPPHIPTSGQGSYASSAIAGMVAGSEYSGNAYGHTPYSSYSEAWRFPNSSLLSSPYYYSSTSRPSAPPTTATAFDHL

Usually AC50 stands for the concentration giving half of the maximal activity seen. By EC50 is commonly meant the concentration giving half of the maximal effect. Consider `Cc1ccc(OCCn2c(C)nc3ccccc32)cc1`, for which the concentration at half-maximal activity (AC50) in experiment [1] is 40.5 µM (active); in experiment [3], 41.6 µM (active). Further, the EC50 in experiment [2] is 0.944 µM (active).
One may read the CC50 as the concentration at which the toxic effect on the cells reaches its halfway point. For orientation: IC50 means the concentration that gives 50% inhibition. `O=[N+]([O-])c1ccc(NCCCNS(=O)(=O)c2ccc(Cl)cc2)c(Cl)c1`: the CC50 in experiment [4] was > 40 µM (active). Moreover, in experiment [5], the IC50 is 3.17 µM (not active).
Regarding `O=C(Nc1cccc(Cl)c1)Nc1nnc(CSCCOc2ccc(Cl)cc2)s1`, the AC50 on Paired box protein Pax-8 was 5.94 µM (active); in experiment [6], 6.08 µM (active); in experiment [7] it was 10.7 µM (active); in [8], 5.65 µM (active); in experiment [9], 15 µM (active); with INS1, 3.05 µM (active). In addition, the AC50 is 16 µM (active) in experiment [10]; 26.1 µM (active) in [11]; 22.2 µM (active) in [12]; 8.06 µM (active) in experiment [13]; 4.51 µM (active) in [14]; 12.8 µM (active) in [15]. Besides, the AC50 in experiment [16] was 14.6 µM (active).
For `Cc1ccc(Cc2c(C)nc3nc(SCC(=O)NCCCN4CCCCCC4)nn3c2C)cc1`, the IC50 is 9.87 µM (active) on Genome polyprotein [17]; > 20 µM (inactive) at Bcl-2-related protein A1; > 20 µM (inactive) in [18]; 13.2 µM (active) in experiment [19]; 5 µM (active) on Genome polyprotein [20].
In the case of `COc1ccc(-c2cc(C)no2)cc1S(=O)(=O)NCc1cccc(C)c1`, the EC50 at Transthyretin was > 167 µM (inactive).
For `Oc1ccc(/C=N/n2c3ccccc3c3ccccc32)cc1`, the concentration giving a half-maximal response (EC50) with Streptococcus was 10.8 µM (active); in experiment [23], 6.24 µM (active); at Streptokinase A, > 150 µM (not active). Besides, the IC50 in experiment [21] is > 100 µM (active). In addition, in [22], the CC50 is 17.2 µM (active).
